Measurements published in the supplement of paper PMC7645387.
± gives the standard deviation of the averaged measurements.

Tests used:
Assay in all cases: cell viability relative to DMSO control; higher = less growth inhibition
Details in all cases: treatment time: 6 days
HDFB = system: HDFB
Description: (§1)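 MCC cell lines (PeTa, MKL-1, MS-1, WaGa) and HDFB fibroblasts were treated for 6 days with serial dilutions (1e-11 to 1e-4 M) of single compounds in quadruplicate. Viability was read by CellTiter-Glo 2.0 and expressed as % of DMSO control.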

MS-1 = system: MS-1
Description: as §1

WaGa = system: WaGa
Description: as §1

PeTa = system: PeTa
Description: as §1

MKL-1 = system: MKL-1
Description: as §1

In the case of `c1ccc([C@@H]2C[C@H]2NC2CCNCC2)cc1` [GSK-LSD1], the cell viability (HDFB; log10 concentration (M): -5) is reported as 97.43 ± 0.88%, the cell viability (HDFB; log10 concentration (M): -6) is reported as 98.5 ± 1.4% and the cell viability (HDFB; log10 concentration (M): -7) is reported as 98.6 ± 3.9%. The cell viability (HDFB; log10 concentration (M): -8) was 99.4 ± 4.2%, the cell viability (HDFB; log10 concentration (M): -9) was 100 ± 1.2% and the cell viability (HDFB; log10 concentration (M): -10) was 105 ± 2.1%. For the same compound, the cell viability (HDFB; log10 concentration (M): -11) was 103 ± 1.1%, the cell viability (MS-1; log10 concentration (M): -5) was 45.9 ± 1.6% and the cell viability (MS-1; log10 concentration (M): -6) was 45.4 ± 3.8%. It also gave a cell viability (MS-1; log10 concentration (M): -7) of 47.6 ± 1.6%, a cell viability (MS-1; log10 concentration (M): -8) of 47.1 ± 3.4% and a cell viability (MS-1; log10 concentration (M): -9) of 74.9 ± 5.8%. For the same compound, the cell viability (MS-1; log10 concentration (M): -10) was 93.1 ± 2.9%, the cell viability (MS-1; log10 concentration (M): -11) was 94.7 ± 3.8% and the cell viability (WaGa; log10 concentration (M): -5) was 45 ± 5.1%. The cell viability (WaGa; log10 concentration (M): -6) was 49.8 ± 2.1%, the cell viability (WaGa; log10 concentration (M): -7) was 44.1 ± 5.5% and the cell viability (WaGa; log10 concentration (M): -8) was 55.4 ± 1.8%. For the same compound, the cell viability (WaGa; log10 concentration (M): -9) was 76.6 ± 5.2%, the cell viability (WaGa; log10 concentration (M): -10) was 95.6 ± 3% and the cell viability (WaGa; log10 concentration (M): -11) was 97.6 ± 6.1%. The cell viability (PeTa; log10 concentration (M): -5) was 28.8 ± 1.3%, the cell viability (PeTa; log10 concentration (M): -6) was 23.1 ± 2.4% and the cell viability (PeTa; log10 concentration (M): -7) was 21.3 ± 0.88%. It also gave a cell viability (PeTa; log10 concentration (M): -8) of 28.1 ± 0.85%, a cell viability (PeTa; log10 concentration (M): -9) of 67.8 ± 4.2% and a cell viability (PeTa; log10 concentration (M): -10) of 101 ± 5.4%. The cell viability (PeTa; log10 concentration (M): -11) was 99.1 ± 7.4%, the cell viability (MKL-1; log10 concentration (M): -5) was 56.1 ± 5.8% and the cell viability (MKL-1; log10 concentration (M): -6) was 62 ± 1.4%. It also gave a cell viability (MKL-1; log10 concentration (M): -7) of 60.1 ± 3.4%, a cell viability (MKL-1; log10 concentration (M): -8) of 67.2 ± 1.8% and a cell viability (MKL-1; log10 concentration (M): -9) of 87.9 ± 6.7%. The cell viability (MKL-1; log10 concentration (M): -10) was 98.1 ± 2.9% and the cell viability (MKL-1; log10 concentration (M): -11) was 98.7 ± 1.5%.

In the case of `CCOC(=O)NCCCC(=O)NCCc1ccccc1` [Santacruzamate A], the cell viability (HDFB; log10 concentration (M): -4) is reported as 41.6 ± 3.4%, the cell viability (HDFB; log10 concentration (M): -5) is reported as 103 ± 3.4% and the cell viability (HDFB; log10 concentration (M): -6) is reported as 103 ± 3.5%. The cell viability (HDFB; log10 concentration (M): -7) was 99.8 ± 4.6%, the cell viability (HDFB; log10 concentration (M): -8) was 101 ± 3.4% and the cell viability (HDFB; log10 concentration (M): -9) was 101 ± 6.3%. It also gave a cell viability (HDFB; log10 concentration (M): -10) of 99.3 ± 7.7%, a cell viability (HDFB; log10 concentration (M): -11) of 100 ± 9.2% and a cell viability (PeTa; log10 concentration (M): -4) of 45.5 ± 14%. For the same compound, the cell viability (PeTa; log10 concentration (M): -5) was 104 ± 5.5%, the cell viability (PeTa; log10 concentration (M): -6) was 105 ± 2.4% and the cell viability (PeTa; log10 concentration (M): -7) was 99.9 ± 11%. The cell viability (PeTa; log10 concentration (M): -8) was 105 ± 1.4%, the cell viability (PeTa; log10 concentration (M): -9) was 103 ± 1.9% and the cell viability (PeTa; log10 concentration (M): -10) was 105 ± 3.6%. The cell viability (PeTa; log10 concentration (M): -11) was 103 ± 2.8%, the cell viability (MKL-1; log10 concentration (M): -4) was 34.9 ± 2.9% and the cell viability (MKL-1; log10 concentration (M): -5) was 106 ± 1.2%. For the same compound, the cell viability (MKL-1; log10 concentration (M): -6) was 105 ± 1.5%, the cell viability (MKL-1; log10 concentration (M): -7) was 104 ± 1.9% and the cell viability (MKL-1; log10 concentration (M): -8) was 103 ± 1.4%. For the same compound, the cell viability (MKL-1; log10 concentration (M): -9) was 102 ± 3.4%, the cell viability (MKL-1; log10 concentration (M): -10) was 99.3 ± 7.4% and the cell viability (MKL-1; log10 concentration (M): -11) was 100 ± 1.6%.

`Cc1cc2c(cc1N1C(=O)c3cccc4c(CCCO)ccc(c34)C1=O)n(C)c(=O)n2C` [BAY299] was tested, and the cell viability (HDFB; log10 concentration (M): -4) was 31.2 ± 1.8%, the cell viability (HDFB; log10 concentration (M): -5) was 78.5 ± 3.7% and the cell viability (HDFB; log10 concentration (M): -6) was 74.1 ± 2.2%. The cell viability (HDFB; log10 concentration (M): -7) was 92.1 ± 3.5%, the cell viability (HDFB; log10 concentration (M): -8) was 100 ± 12% and the cell viability (HDFB; log10 concentration (M): -9) was 97.5 ± 6.5%. For the same compound, the cell viability (HDFB; log10 concentration (M): -10) was 100 ± 9.7%, the cell viability (HDFB; log10 concentration (M): -11) was 99.3 ± 4% and the cell viability (PeTa; log10 concentration (M): -4) was 0.141 ± 0.02%. For the same compound, the cell viability (PeTa; log10 concentration (M): -5) was 2.01 ± 0.19%, the cell viability (PeTa; log10 concentration (M): -6) was 37.3 ± 4.9% and the cell viability (PeTa; log10 concentration (M): -7) was 88.5 ± 20%. The cell viability (PeTa; log10 concentration (M): -8) was 92.1 ± 19%, the cell viability (PeTa; log10 concentration (M): -9) was 94.4 ± 17% and the cell viability (PeTa; log10 concentration (M): -10) was 103 ± 18%. For the same compound, the cell viability (PeTa; log10 concentration (M): -11) was 95.8 ± 12%, the cell viability (MKL-1; log10 concentration (M): -4) was 0.0297 ± 0.015% and the cell viability (MKL-1; log10 concentration (M): -5) was 0.557 ± 0.05%. It also gave a cell viability (MKL-1; log10 concentration (M): -6) of 20.6 ± 2.8%, a cell viability (MKL-1; log10 concentration (M): -7) of 102 ± 15% and a cell viability (MKL-1; log10 concentration (M): -8) of 88.4 ± 4.3%. For the same compound, the cell viability (MKL-1; log10 concentration (M): -9) was 111 ± 13%, the cell viability (MKL-1; log10 concentration (M): -10) was 101 ± 15% and the cell viability (MKL-1; log10 concentration (M): -11) was 92.3 ± 18%.

`CN1CCN(c2ccc(-c3cccc(CN4CCOCC4)c3)cc2NC(=O)c2c[nH]c(=O)cc2C(F)(F)F)CC1` [OICR9429] showed a cell viability (HDFB; log10 concentration (M): -4) of 42.7 ± 12%, a cell viability (HDFB; log10 concentration (M): -5) of 83.7 ± 5.2% and a cell viability (HDFB; log10 concentration (M): -6) of 97.6 ± 5.7%. It also gave a cell viability (HDFB; log10 concentration (M): -7) of 105 ± 3.1%, a cell viability (HDFB; log10 concentration (M): -8) of 117 ± 20% and a cell viability (HDFB; log10 concentration (M): -9) of 113 ± 7.9%. For the same compound, the cell viability (HDFB; log10 concentration (M): -10) was 108 ± 4.6%, the cell viability (HDFB; log10 concentration (M): -11) was 104 ± 4.1% and the cell viability (PeTa; log10 concentration (M): -4) was 49.1 ± 85%. The cell viability (PeTa; log10 concentration (M): -5) was 96.8 ± 45%, the cell viability (PeTa; log10 concentration (M): -6) was 103 ± 21% and the cell viability (PeTa; log10 concentration (M): -7) was 111 ± 21%. The cell viability (PeTa; log10 concentration (M): -8) was 119 ± 29%, the cell viability (PeTa; log10 concentration (M): -9) was 126 ± 27% and the cell viability (PeTa; log10 concentration (M): -10) was 122 ± 21%. The cell viability (PeTa; log10 concentration (M): -11) was 126 ± 25%, the cell viability (MKL-1; log10 concentration (M): -4) was 0.438 ± 0.44% and the cell viability (MKL-1; log10 concentration (M): -5) was 57.6 ± 3.4%. It also gave a cell viability (MKL-1; log10 concentration (M): -6) of 79.2 ± 7.5%, a cell viability (MKL-1; log10 concentration (M): -7) of 87.1 ± 17% and a cell viability (MKL-1; log10 concentration (M): -8) of 80.2 ± 6.2%. For the same compound, the cell viability (MKL-1; log10 concentration (M): -9) was 85.8 ± 12%, the cell viability (MKL-1; log10 concentration (M): -10) was 89.9 ± 12% and the cell viability (MKL-1; log10 concentration (M): -11) was 85.7 ± 13%.

In the case of `N[C@H]1CC[C@H](N[C@@H]2C[C@H]2c2ccccc2)CC1` [ORY-1001], the cell viability (HDFB; log10 concentration (M): -5) is reported as 95.7 ± 2.2%, the cell viability (HDFB; log10 concentration (M): -6) is reported as 97.6 ± 3.9% and the cell viability (HDFB; log10 concentration (M): -7) is reported as 94.1 ± 2.7%. The cell viability (HDFB; log10 concentration (M): -8) was 95.1 ± 2.2%, the cell viability (HDFB; log10 concentration (M): -9) was 96.1 ± 1.3% and the cell viability (HDFB; log10 concentration (M): -10) was 99.58 ± 0.98%. For the same compound, the cell viability (HDFB; log10 concentration (M): -11) was 100 ± 1.3%, the cell viability (MS-1; log10 concentration (M): -5) was 47.3 ± 2.2% and the cell viability (MS-1; log10 concentration (M): -6) was 56.8 ± 1.2%. It also gave a cell viability (MS-1; log10 concentration (M): -7) of 58.9 ± 5.5%, a cell viability (MS-1; log10 concentration (M): -8) of 57.2 ± 2.4% and a cell viability (MS-1; log10 concentration (M): -9) of 58.8 ± 1.9%. The cell viability (MS-1; log10 concentration (M): -10) was 104 ± 3%, the cell viability (MS-1; log10 concentration (M): -11) was 104 ± 16% and the cell viability (WaGa; log10 concentration (M): -5) was 35.1 ± 2.3%. For the same compound, the cell viability (WaGa; log10 concentration (M): -6) was 38.3 ± 4.8%, the cell viability (WaGa; log10 concentration (M): -7) was 39.7 ± 5.1% and the cell viability (WaGa; log10 concentration (M): -8) was 44 ± 5.8%. The cell viability (WaGa; log10 concentration (M): -9) was 63.3 ± 1.2%, the cell viability (WaGa; log10 concentration (M): -10) was 91.5 ± 1.2% and the cell viability (WaGa; log10 concentration (M): -11) was 99.1 ± 0.86%. It also gave a cell viability (PeTa; log10 concentration (M): -5) of 22.3 ± 2.8%, a cell viability (PeTa; log10 concentration (M): -6) of 18.2 ± 3.2% and a cell viability (PeTa; log10 concentration (M): -7) of 17.2 ± 0.89%. It also gave a cell viability (PeTa; log10 concentration (M): -8) of 16.3 ± 1.2%, a cell viability (PeTa; log10 concentration (M): -9) of 47.5 ± 17% and a cell viability (PeTa; log10 concentration (M): -10) of 102 ± 6.4%. It also gave a cell viability (PeTa; log10 concentration (M): -11) of 97.6 ± 4.8%, a cell viability (MKL-1; log10 concentration (M): -5) of 39.8 ± 5.9% and a cell viability (MKL-1; log10 concentration (M): -6) of 44.9 ± 3.6%. It also gave a cell viability (MKL-1; log10 concentration (M): -7) of 46.4 ± 4.5%, a cell viability (MKL-1; log10 concentration (M): -8) of 62.8 ± 28% and a cell viability (MKL-1; log10 concentration (M): -9) of 81 ± 16%. It also gave a cell viability (MKL-1; log10 concentration (M): -10) of 102 ± 3.2% and a cell viability (MKL-1; log10 concentration (M): -11) of 100 ± 4.5%.
